Experimental data as given in patent publication US20260108514A1, “METHOD OF INHIBITING EPITHELIAL-MESENCHYMAL TRANSITION AND CANCER METASTASIS” (Agency for Science, Technology and Research, priority 2022, published 2026).
Where a name gives a salt, the structure may show the parent alone.

What was measured:
[1] = system: HMLE-ZEB1 cells (CDH1prom-luc reporter, Dox-induced ZEB1 driven EMT); assay: Dual-Glo luciferase CDH1prom-luc reporter screen of LOPAC and bioactive lipid library; assay type: cell-based; details: ratio Firefly (CDH1prom-luc) / Renilla luciferase, normalized to DMSO = 1; primary screen
Text: FIG. 1: Design of a cell-based reporter assay. Doxycycline (Dox)-induced ZEB1 driven EMT (HMLE-ZEB1 cells) was used to conduct high-throughput screen for identifying inhibitors of epithelial-mesenchymal transition.
A) Dual-Glo luciferase assay to test gene promoters that include CD44, CD166, CDH1 and SERPINE1 in Dox-induced HMLE-ZEB1 cells. Data are represented as ratio of mean Firefly luciferase (FF) and Renilla luciferase (Ren) readings; n=3. B) Dual-glo Luciferase assay of HMLE-ZEB1 screened with LOPAC library. Data are represented as ratio of mean Firefly luciferase (FF) and Renilla luciferase (Ren) readings, n=3. Hits are circled in red. C) Average Z-score of Dual-glo Luciferase assay in HMLE-ZEB1 cells screened with LOPAC library; n=4. D) Validation of screening hits by Dual-glo Luciferase assay in HMLE-ZEB1 screened with LOPAC library by primary and secondary screens. E) Hits from secondary screen validated at different concentrations 5, 1.66, 0.55, 0.18 and 0.06 μM. N=3 F) Validation of the screening hits by CDH1 gene expression. n=3. G) Top, Phase-contrast images of morphological changes of HMLE-ZEB1 cells in DMSO and Dox-treated cells in presence or absence of Kenpaullone (0.25 μM) (DMSO, Dox, Ken, and Dox+Ken). Scale represents 100 μm. Second, Immunofluorescence staining of epithelial marker E-Cadherin (ECAD) and mesenchymal marker Vimentin in DMSO, Dox, Ken and Dox+Ken treated cells. Scale represents 50 μm. Bottom, Fluorescence activated sorting analysis (FACS) of CD44 and CD24 staining in Dox induced HMLE-ZEB1 cells in presence or absence of Ken. Numbers within graph represent percentages of gated cells indicating CD44high CD24low (above) and CD44lowCD24high cells (below). H) TdTomato-labelled MCF7-SLUG+SOX9 cells that were injected orthotopically into the mammary fat pads and induced by Doxycycline (+Dox) to express SLUG and SOX9 to promote metastasis in shControl and shGSK3β cells. Top, Representative fluorescence images of whole-mount of lung and second, histology of lung sections. Scale bar represents 100 μm. Third, Tumors were stained for GSK3β and counterstained with hematoxylin. Scale bar represents 100 μm. Fourth, primary tumors were also stained for E-cadherin, Fibronectin and DAPI. Scale bar represents 50 μm. n=3-5 mice for each group. I) Total number of metastasis as counted from whole mount of lung in mice implanted with in shControl and shGSK3β cells. n=3-5 for each group. **P<0.01 and ***P<0.001 as determined by as determined by one-way ANOVA with Dunnet's multiple comparison test. All data are presented as mean+/−SEM. *P<0.05, **P<0.01, ***P<0.001 and ****P<0.0001, not significant (ns) as determined by unpaired two-tailed t-test unless otherwise stated.
FIG. 3: Identification of inhibitors of epithelial-mesenchymal transition from high-throughput screening of bioactive lipid library with the screening platform. A) Dual-glo Luciferase assay of HMLE-ZEB1 screened with bioactive lipid library. Data are represented as ratio of mean Firefly luciferase (FF) and Renilla luciferase (Ren) readings, n=3. Hits are circled in red. B) Average Z-score of Dual-glo Luciferase assay in HMLE-ZEB1 cells screened with bioactive lipid library; n=4. Compounds shown in red indicates top hits. C) Protein expression of EMT markers E-cadherin, Fibronectin Vimentin and Snail in DMSO and 4-OHT induced cells treated with and without Cay10603 (10 nM) in HMLE-TWIST. GAPDH was used as a loading control. D) (First)Morphological evidence and (second) Fluorescence activated sorting analysis (FACS) of CD44 and CD24 staining in DMSO, 4-OHT, CAY10603 and 4-OHT+CAY10603 treated cells. Numbers within graph represent percentages of gated cells indicating CD44highCD24low (above) and CD44lowCD24high cells (below). E) Representative bright-field images and quantification of DMSO,4-OHT, CAY,4-OHT+CAY treated cells as shown by of scratch wound migration assay before and after 6 h of scratch in presence or absence of 4-OHT-induced EMT. […]

[2] = system: MCF7-SLUG+SOX9 cells; assay: MCF7-SLUG+SOX9 orthotopic xenograft, EMT-dependent lung metastasis; assay type: in vivo, NSG mice
Text: FIG. 3: Identification of inhibitors of epithelial-mesenchymal transition from high-throughput screening of bioactive lipid library with the screening platform. A) Dual-glo Luciferase assay of HMLE-ZEB1 screened with bioactive lipid library. Data are represented as ratio of mean Firefly luciferase (FF) and Renilla luciferase (Ren) readings, n=3. Hits are circled in red. B) Average Z-score of Dual-glo Luciferase assay in HMLE-ZEB1 cells screened with bioactive lipid library; n=4. Compounds shown in red indicates top hits. C) Protein expression of EMT markers E-cadherin, Fibronectin Vimentin and Snail in DMSO and 4-OHT induced cells treated with and without Cay10603 (10 nM) in HMLE-TWIST. GAPDH was used as a loading control. D) (First)Morphological evidence and (second) Fluorescence activated sorting analysis (FACS) of CD44 and CD24 staining in DMSO, 4-OHT, CAY10603 and 4-OHT+CAY10603 treated cells. Numbers within graph represent percentages of gated cells indicating CD44highCD24low (above) and CD44lowCD24high cells (below). E) Representative bright-field images and quantification of DMSO,4-OHT, CAY,4-OHT+CAY treated cells as shown by of scratch wound migration assay before and after 6 h of scratch in presence or absence of 4-OHT-induced EMT. Images were taken at 4× magnification. Scale bar represents 100 μm. F) (First) Representative images of whole-mount fluorescence lung image and (Second) histology of lung sections. Scale bar represents 100 μm. (Third)Tumors were stained for HDAC6 and counterstained with hematoxylin. Scale bar represents 100 μm. (Fourth) Primary tumors were also stained for E-cadherin, Fibronectin and DAPI. Scale bar represents 50 μm. n=4 mice for each group. G) Total number of metastasis as counted from whole mount of lung with −Dox, +Dox and ACY-1215+Dox treatment. n=3-4 for each group. **P<0.01 as determined by as determined by one-way ANOVA with Dunnet's multiple comparison test. All data are presented as mean+/−SEM. *P<0.05, **P<0.01, ***P<0.001 and ****P<0.0001, not significant (ns) as determined by unpaired two-tailed t-test unless otherwise stated.
FIG. 4. Disruption of microtubule depolymerization through HDAC6 inhibition and GSK3β inhibition restricts EMT. A) Top, Phase-contrast images of morphological changes in DMSO and 4-OHT induced cells treated with Ken, ACY-1215 and combination of both in HMLE-TWIST. Arrows represent cells growing as epithelial clusters. Scale represents 100 μm. Second, Immunofluorescence staining of acetylated α-tubulin in DMSO, Ken+ACY-1215, 4-OHT, ACY-1215+4-OHT, Ken+4-OHT and Ken+ACY-1215+4-OHT treated cells. Scale represents 50 μm. (Third) Fluorescence activated sorting analysis (FACS) of CD44 and CD24 staining in DMSO, Ken+ACY-1215, 4-OHT, ACY-1215+4-OHT, Ken+4-OHT and Ken+ACY-1215+4-OHT treated cells. […] C) Quantification of protein expression for DMSO, Ken+ACY, 4-OHT, ACY+4-OHT, Ken+4-OHT and Ken+ACY+4-OHT treated HMLE-TWIST cells (n=3). […] E) Quantification of percentage area closure in DMSO, Ken+ACY-1215, 4-OHT, ACY-1215+4-OHT, Ken+4-OHT and Ken+ACY-1215+4-OHT treated HMLE-TWIST cells. Graph represents mean+/−SEM of n=4. *P<0.05 and **P<0.01 as determined by unpaired t-test (two-tailed) by Welch's correction. F) Total number of metastasis as counted from whole mount of lung in mice implanted with shControl and shGSK3β cells treated with ACY-1215 in presence or absence of Dox treatment (n=3-4). […]

[3] = system: HMLE-TWIST cells; assay: TWIST (4-OHT)-induced EMT: markers, morphology, CD44/CD24 FACS, acetylated tubulin; assay type: cell-based; details: 4-OHT induced HMLE-TWIST
Text: (§1) FIG. 3: Identification of inhibitors of epithelial-mesenchymal transition from high-throughput screening of bioactive lipid library with the screening platform. A) Dual-glo Luciferase assay of HMLE-ZEB1 screened with bioactive lipid library. Data are represented as ratio of mean Firefly luciferase (FF) and Renilla luciferase (Ren) readings, n=3. Hits are circled in red. B) Average Z-score of Dual-glo Luciferase assay in HMLE-ZEB1 cells screened with bioactive lipid library; n=4. Compounds shown in red indicates top hits. C) Protein expression of EMT markers E-cadherin, Fibronectin Vimentin and Snail in DMSO and 4-OHT induced cells treated with and without Cay10603 (10 nM) in HMLE-TWIST. […] D) (First)Morphological evidence and (second) Fluorescence activated sorting analysis (FACS) of CD44 and CD24 staining in DMSO, 4-OHT, CAY10603 and 4-OHT+CAY10603 treated cells. […] E) Representative bright-field images and quantification of DMSO,4-OHT, CAY,4-OHT+CAY treated cells as shown by of scratch wound migration assay before and after 6 h of scratch in presence or absence of 4-OHT-induced EMT. […] F) (First) Representative images of whole-mount fluorescence lung image and (Second) histology of lung sections. […] All data are presented as mean+/−SEM. *P<0.05, **P<0.01, ***P<0.001 and ****P<0.0001, not significant (ns) as determined by unpaired two-tailed t-test unless otherwise stated. […]

[4] = system: HMLE-TWIST cells; assay: Scratch wound migration assay in 4-OHT-induced EMT; assay type: cell-based; details: 6 h after scratch
Text: as §1

[5] = system: HMLE-ZEB1 cells; assay: Validation of ZEB1-induced EMT inhibition (morphology); assay type: cell-based; details: Dox-induced HMLE-ZEB1, Kenpaullone 0.25 μM
Text: A) Dual-Glo luciferase assay to test gene promoters that include CD44, CD166, CDH1 and SERPINE1 in Dox-induced HMLE-ZEB1 cells. Data are represented as ratio of mean Firefly luciferase (FF) and Renilla luciferase (Ren) readings; n=3. B) Dual-glo Luciferase assay of HMLE-ZEB1 screened with LOPAC library. Data are represented as ratio of mean Firefly luciferase (FF) and Renilla luciferase (Ren) readings, n=3. Hits are circled in red. C) Average Z-score of Dual-glo Luciferase assay in HMLE-ZEB1 cells screened with LOPAC library; n=4. D) Validation of screening hits by Dual-glo Luciferase assay in HMLE-ZEB1 screened with LOPAC library by primary and secondary screens. […] Bottom, Fluorescence activated sorting analysis (FACS) of CD44 and CD24 staining in Dox induced HMLE-ZEB1 cells in presence or absence of Ken. […] Top, Representative fluorescence images of whole-mount of lung and second, histology of lung sections. […] I) Total number of metastasis as counted from whole mount of lung in mice implanted with in shControl and shGSK3β cells. n=3-5 for each group. **P<0.01 and ***P<0.001 as determined by as determined by one-way ANOVA with Dunnet's multiple comparison test. All data are presented as mean+/−SEM. *P<0.05, **P<0.01, ***P<0.001 and ****P<0.0001, not significant (ns) as determined by unpaired two-tailed t-test unless otherwise stated. […]

Structure (SMILES)	DMSO normalized FF/RL(DMSO = 1) [1]	other results
CCCCCCCCCCCCCCCCCCOC[C@H](COP(=O)([O-])OCC[N+](C)(C)C)OC [2-O-methyl PAF C-18]	0.35	
CCc1ccc(/C=C2/SC(=S)NC2=O)cc1 [10058-F4]	0.5631	
O=C(CCCCCCNC(=O)c1cnc(N(c2ccccc2)c2ccccc2)nc1)NO [ACY-1215, ricolinostat]		lung metastatic lesions ([2]; ACY-1215 50 mg/kg i.p. + Dox vs Dox-fed mice, 10 weeks after doxycycline): significantly reduced lung metastatic lesions; metastatic lesions in the lungs, shControl group ([2]; shControl cells, Dox induction, ACY-1215 treatment): reduced; metastatic lesions in the lungs, shGSK3β group ([2]; shGSK3β cells, ACY-1215 treatment, compared to Dox-fed shControl mice): reduced metastatic lesions most dramatically; tumor burden ([2]; shGSK3β group treated with ACY-1215 vs Dox-fed shControl): non-significant changes in tumor burden; EMT activation in primary tumors (higher HDAC6 and Fibronectin, low E-Cadherin) ([2]; tumors of ACY-1215+Dox mice vs Dox-fed mice): strikingly absent
O=c1cc(-c2ccc(O)cc2)oc2cc(O)cc(O)c12 [Apigenin]	0.5787	
Nc1ccc(-c2ccc3ccccc3n2)cc1 [BF-170 hydrochloride]	0.5174	
CC(C)(C)OC(=O)Nc1ccc(-c2cc(C(=O)NCCCCCCC(=O)NO)no2)cc1 [CAY 10603]	0.33	epithelial morphology and CD44 expression (FACS) [3]: retained epithelial morphology along with the block in gain of CD44 expression to some extent; inhibition of TWIST-driven EMT (retention of E-cadherin, no gain of mesenchymal markers) ([3]; Cay10603 10 nM, protein expression): able to inhibit EMT; acquisition of migration ability, wound-healing assay [4]: blocked the acquisition of migration ability
Cc1cc(O)c2c(c1)C(=O)c1cc(O)cc(O)c1C2=O [Emodin]	0.6268	
O=C1Cc2c([nH]c3ccc(Br)cc23)-c2ccccc2N1 [Kenpaullone]	0.8715	inhibition of ZEB1-induced EMT (retention of epithelial morphology) [5]: able to inhibit ZEB1-induced EMT
COc1cccc(-c2cc(=O)c3ccccc3o2)c1N [PD 98,059]	0.4592	
Oc1cc(O)cc(/C=C/c2ccc(O)c(O)c2)c1 [Piceatannol]	0.6253	
Cc1ccc(C(=O)Cn2c3c(sc2=N)CCCC3)cc1 [Pifithrin-α]	0.348	
O=c1c2ccccc2nc2n1CCc1c-2[nH]c2ccccc12 [Rutaecarpine]	0.5597	
COc1ccc(/C=C/C(=O)Nc2ccccc2C(=O)O)cc1OC [Tranilast]	0.4527	
